Target: T1, butyric acid olfactory receptor OR51E1 (Homo sapiens, UniProt Q8TCB6)
T1 construct: expressed in transfected cells
T1 sequence (Q8TCB6 1-318): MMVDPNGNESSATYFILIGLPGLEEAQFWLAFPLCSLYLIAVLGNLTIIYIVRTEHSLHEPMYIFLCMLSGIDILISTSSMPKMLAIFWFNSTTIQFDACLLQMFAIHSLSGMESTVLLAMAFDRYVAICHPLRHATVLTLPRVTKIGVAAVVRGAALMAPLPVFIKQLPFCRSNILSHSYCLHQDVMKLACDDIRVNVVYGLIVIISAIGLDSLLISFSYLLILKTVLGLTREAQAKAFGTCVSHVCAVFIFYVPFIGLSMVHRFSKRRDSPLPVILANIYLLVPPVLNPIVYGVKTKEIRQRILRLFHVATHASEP
Experiment: Inhibitory dose-response assay in a cell line expressing the OR51E1 olfactory receptor, in the presence of butyric acid (EC87)
Type: cell-based
Settings: maximum % inhibition of butyric acid (EC87) induced OR51E1 activity, normalized to baseline agonist activity

Structure (SMILES)	Inhibition (%)
CC1CC(C)(C=NO)C2C[C@H]3CC[C@]12C3 (some centres unmarked) [~{N}-[[(1~{S},7~{R})-2,4-dimethyl-4-tricyclo[5.2.1.0^1,5]decanyl]methylidene]hydroxylamine]	38%
CC(=NO)C1C(C)C(C)[C@@]23CC[C@H](CC12)C3 (some centres unmarked) [~{N}-[1[(1~{S},7~{R})-2,3-dimethyl-4-tricyclo[5.2.1.0^1,5]decanyl]ethylidene]hydroxylamine]	19%

Source: patent US11168283B2, “Malodor counteracting ingredients” (Firmenich SA, priority 2017, dated 2021)
